# Key:
# bone (HOS) cell line = assay: Activity against HTCL replication, HOS; format: cell-based, human; conditions: mean ED50
# Procedure: Compounds were assayed for in vitro cytotoxicity in a panel of human tumor cell lines at the School of Pharmacy, University of North Carolina at Chapel Hill, according to procedures described previously [Lee, K. H., Lin, Y. M., Wu, T. S., Zhang, D. C., Yamagishi, T., Hayashi, T., Hall, I. H., Chang, J. J., Wu, R. Y., Yang, T. H. The cytotoxic principles of Prunella vulgaris, Psychotria serpens, and Hyptis capitata: Ursolic acid and related derivatives. Planta Med. 1988, 54, 308-11; Boyd, M. R. Status of the National Cancer Institute preclinical antitumor drug discovery screen: implications for selection of new agents for clinical trial. Devita, V. T., Jr. Hellman, S., Rosenberg, S. A., Eds, J. B. Cancer: Principles and Practice of Oncology Update, 1989, 3: pp1-12, Lippincoft: Philadephia; Monks, A., Scudiero, D., Skehan, P., Shoemaker, R., Paull, K., Vistica, D., Hose, C., Langley, J., Cronise, P., Vaigro-Wolff, A., Gray-Goodrich, M., Campbell, H., Mayo, J., Boyd, M. Feasibility of a high-flux anticancer drug screen using a diverse panel of cultured human tumor cell lines. J. Natl. Cancer Inst. 1991, 83, 757-66.] […]
# [1] = test system: panel of 39 human cancer cell lines; assay: Growth inhibition against human cancer cell line panel (Sulforhodamine B, 48 h); format: cell-based
# Procedure: Compound IX-8 was evaluated growth inhibition activities against a panel of 39 human cancer cell lines including Human breast cancer MDA-MB-231 and the following human cancer cell lines were generously distributed by the National Cancer Institute (Frederick, Md.): lung cancer, NCI-H23, NCI-H226, NCI-H522, NCI-H460, A-549, DMS273 and DMS114; colon cancer, HGC-2998, KM-12, HT-29, HCT-15, and HCT-116; ovarian cancer, OVCAR-3, OVCAR-4, OVCAR-5, OVCAR-8, and SKOV-3; breast cancer, MCF-7; renal cancer, RXF-631L and ACHN; melanoma, LOX-IMVI; brain tumor, U251, SF-295, SF-539, SF-268, SNB-75, and SNB-78, and prostate cancer, DU-145 and PC-3. […]
# The details of measuring cell growth inhibition are described elsewhere [Monks, A., Scudiero, D., Skehan, P., Shoemaker, R., Paull, K., Vistica, D., Hose, C., Langley, J., Cronise, P., Vaigro-Wolff, A., Gray-Goodrich, M., Campbell, H., Mayo, J., Boyd, M. Feasibility of a high-flux anticancer drug screen using a diverse panel of cultured human tumor cell lines. […] Then, the cell growth was determined according to the Sulforhodamine B assay, described by Skehan et al [Skehan, P., Storeng, R., Scudiero, D., Monks, A., McMahon, J., Vistica, D., Warren, J. T., Bokesch, H., Kenney, S., Boyd, M. R. New calorimetric cytotoxicity assay for anticancer-drug screening. […]
structure (smiles),measurement,setting,value
"COc1ccc2[nH]c(-c3cccc(F)c3)c(C(=O)O)c(=O)c2c1 [IX-8, 3′-Fluoro-6-methoxy-2-phenyl-4-quinolone-3-carboxylic acid]",ED50 HOS,bone (HOS) cell line,0.14 µg/mL
same,activity against cancer cell line panel in words,[1]; cell line panel,active against most cancer cell lines
same,MG-MID (mean growth midpoint) of log GI50,"[1]; mean over cell line panel, 10^−4 to 10^−8 M",−6.22 M
